Reference: US7820623B2 (priority 2006, dated 2010)
Where two headings read alike, the source gives them in different places. Bridge positions count the residues as written; N and C are the ends. Square brackets hold non-standard residues; d marks the D form. Peptide text beside a SMILES is read from it. 1Nal = N[C@@H](Cc1cccc2ccccc12)C(=O)O

Columns and labels:
[1] = test system: thapsigargin-induced IL-2 production in human whole blood
[2] = test system: thapsigargin-induced IFN-g production in human whole blood; type: cell-based
[3] = read-out: Analogue Activity (IC50) WB/IL-2
[4] = read-out: Analogue Activity (IC50) WB/IFNg

Row | Compound | IC50 [1, 3] [nM] | IC50 [2, 4] [nM] | IC50 ([1]; read-out: Average IC50 IL-2) [nM] | IC50 ([2]; read-out: Average IC50 IFNg) [nM]
1 | CC[C@H](C)[C@@H]1NC(=O)[C@H](CCCCN)NC(=O)[C@@H](NC(=O)[C@H](CCCCN)NC(=O)[C@@H](NC(=O)[C@H](CC(N)=O)NC(=O)[C@@H](NC(=O)[C@@H](NC(=O)[C@@H](NC(=O)CN)C(C)C)[C@@H](C)CC)[C@@H](C)CC)C(C)C)CSSC[C@@H]2NC(=O)[C@H](CCCCN)NC(=O)CNC(=O)[C@H](C)NC(=O)[C@H](CCCNC(=N)N)NC(=O)[C@H](CCSC)NC(=O)CNC(=O)[C@H](C)NC(=O)[C@H](CCCCN)NC(=O)[C@H](CCCCN)NC(=O)[C@@H]3CSSC[C@@H](C(=O)N[C@H](C(=O)N4CCC[C@H]4C(=O)N[C@@H](CCCCN)C(=O)O)[C@@H](C)O)NC(=O)[C@H](Cc4c[nH]cn4)NC(=O)[C@H](CSSC[C@H](NC(=O)[C@H](CCC(N)=O)NC(=O)[C@H](CCCNC(=N)N)NC(=O)[C@H](CO)NC1=O)C(=O)N[C@@H](CC(C)C)C(=O)N[C@@H](CCC(=O)O)C(=O)N1CCC[C@H]1C(=O)N3)NC(=O)[C@H](CCCCN)NC(=O)CNC(=O)[C@H](CC(N)=O)NC(=O)[C@H](CCSC)NC2=O [F25A] (H-GVIINVKCKISRQCLEPCKKAGMRAGKCMNGKCHCTPK-OH; disulfide 8-28, 14-33, 18-35) | 3.08 | 3.08 | – | –
2 | GVIINVKCKISRACLEPCKKAGMRFGKCMNGKCHCTPK [Ala-13 (SEQ ID No: 1411)] | – | – | 0.148 | 0.133
3 | CC[C@H](C)[C@@H]1NC(=O)[C@H](CCCCN)NC(=O)[C@@H](NC(=O)[C@H](Cc2cccc3ccccc23)NC(=O)[C@@H](NC(=O)[C@H](CC(N)=O)NC(=O)[C@@H](NC(=O)[C@@H](NC(=O)[C@@H](NC(=O)CN)C(C)C)[C@@H](C)CC)[C@@H](C)CC)C(C)C)CSSC[C@@H]2NC(=O)[C@H](CCCCN)NC(=O)CNC(=O)[C@H](Cc3ccccc3)NC(=O)[C@H](CCCNC(=N)N)NC(=O)[C@H](CCSC)NC(=O)CNC(=O)[C@H](C)NC(=O)[C@H](CCCCN)NC(=O)[C@H](CCCCN)NC(=O)[C@@H]3CSSC[C@@H](C(=O)N[C@H](C(=O)N4CCC[C@H]4C(=O)N[C@@H](CCCCN)C(=O)O)[C@@H](C)O)NC(=O)[C@H](Cc4c[nH]cn4)NC(=O)[C@H](CSSC[C@H](NC(=O)[C@H](CCC(N)=O)NC(=O)[C@H](CCCNC(=N)N)NC(=O)[C@H](CO)NC1=O)C(=O)N[C@@H](CC(C)C)C(=O)N[C@@H](CCC(=O)O)C(=O)N1CCC[C@H]1C(=O)N3)NC(=O)[C@H](CCCCN)NC(=O)CNC(=O)[C@H](CC(N)=O)NC(=O)[C@H](CCSC)NC2=O [K7Nal] (H-GVIINV[1Nal]CKISRQCLEPCKKAGMRFGKCMNGKCHCTPK-OH; disulfide 8-28, 14-33, 18-35) | 0.222 | 0.246 | – | –
4 | GVIINVKCKISRQCLEPCKKAGMRFGKCMAGKCHCTPK [Ala-30 (SEQ ID No: 1425)] | – | – | 0.971 | 0.637
5 | CC[C@H](C)[C@@H]1NC(=O)[C@H](CCCCN)NC(=O)[C@@H](NC(=O)[C@H](CCCCN)NC(=O)[C@@H](NC(=O)[C@H](CC(N)=O)NC(=O)[C@@H](NC(=O)[C@@H](NC(=O)[C@@H](NC(=O)CN)C(C)C)[C@@H](C)CC)[C@@H](C)CC)C(C)C)CSSC[C@@H]2NC(=O)[C@H](CCCCN)NC(=O)CNC(=O)[C@H](Cc3ccccc3)NC(=O)[C@H](CCCNC(=N)N)NC(=O)[C@H](CCSC)NC(=O)CNC(=O)[C@H](C)NC(=O)[C@H](CCCCN)NC(=O)[C@H](CCCCN)NC(=O)[C@@H]3CSSC[C@@H](C(=O)N[C@H](C(=O)N[C@@H](CCCNC(=N)N)C(=O)N[C@@H](CCCCN)C(=O)O)[C@@H](C)O)NC(=O)[C@H](Cc4c[nH]cn4)NC(=O)[C@H](CSSC[C@H](NC(=O)[C@H](CCC(N)=O)NC(=O)[C@H](CCCNC(=N)N)NC(=O)[C@H](CO)NC1=O)C(=O)N[C@@H](CC(C)C)C(=O)N[C@@H](CCC(=O)O)C(=O)N1CCC[C@H]1C(=O)N3)NC(=O)[C@H](CCCCN)NC(=O)CNC(=O)[C@H](CC(N)=O)NC(=O)[C@H](CCSC)NC2=O [P37R] (H-GVIINVKCKISRQCLEPCKKAGMRFGKCMNGKCHCTRK-OH; disulfide 8-28, 14-33, 18-35) | 0.229 | 0.253 | – | –
6 | CC[C@H](C)[C@@H]1NC(=O)[C@H](CCCCN)NC(=O)[C@@H](NC(=O)[C@H](CCCCN)NC(=O)[C@@H](NC(=O)[C@H](CC(N)=O)NC(=O)[C@@H](NC(=O)[C@@H](NC(=O)[C@@H](NC(=O)CN)C(C)C)[C@@H](C)CC)[C@@H](C)CC)C(C)C)CSSC[C@@H]2NC(=O)[C@H](CCCCN)NC(=O)CNC(=O)[C@H](Cc3ccccc3)NC(=O)[C@H](CCCNC(=N)N)NC(=O)[C@H](CCSC)NC(=O)CNC(=O)[C@H](C)NC(=O)[C@H](CCCCN)NC(=O)[C@H](CCCCN)NC(=O)[C@@H]3CSSC[C@@H](C(=O)N[C@H](C(=O)N4CCC[C@H]4C(=O)N[C@@H](CCCCN)C(=O)O)[C@@H](C)O)NC(=O)[C@H](Cc4c[nH]cn4)NC(=O)[C@H](CSSC[C@H](NC(=O)[C@H](CCC(N)=O)NC(=O)[C@H](CCCNC(=N)N)NC(=O)[C@H](C)NC1=O)C(=O)N[C@@H](CC(C)C)C(=O)N[C@@H](CCC(=O)O)C(=O)N1CCC[C@H]1C(=O)N3)NC(=O)[C@H](CCCCN)NC(=O)CNC(=O)[C@H](CC(N)=O)NC(=O)[C@H](CCSC)NC2=O [S11A] (H-GVIINVKCKIARQCLEPCKKAGMRFGKCMNGKCHCTPK-OH; disulfide 8-28, 14-33, 18-35) | 0.09 | 0.11 | – | –
7 | GVIINVKCKISRQCLEPCAKAGMRFGKCMNGKCHCTPK [Ala-19 (SEQ ID No: 1415)] | – | – | 0.163 | 0.163
8 | CC[C@H](C)[C@@H]1NC(=O)[C@H](CCCCN)NC(=O)[C@@H](NC(=O)[C@H](CCCCN)NC(=O)[C@@H](NC(=O)[C@H](CCC(=O)O)NC(=O)[C@@H](NC(=O)[C@@H](NC(=O)[C@@H](NC(=O)CN)C(C)C)[C@@H](C)CC)[C@@H](C)CC)C(C)C)CSSC[C@@H]2NC(=O)[C@H](CCCCN)NC(=O)CNC(=O)[C@H](Cc3ccccc3)NC(=O)[C@H](CCCNC(=N)N)NC(=O)[C@H](CCSC)NC(=O)CNC(=O)[C@H](C)NC(=O)[C@H](CCCCN)NC(=O)[C@H](CCCCN)NC(=O)[C@@H]3CSSC[C@@H](C(=O)N[C@H](C(=O)N4CCC[C@H]4C(=O)N[C@@H](CCCCN)C(=O)O)[C@@H](C)O)NC(=O)[C@H](Cc4c[nH]cn4)NC(=O)[C@H](CSSC[C@H](NC(=O)[C@H](CCC(N)=O)NC(=O)[C@H](CCCNC(=N)N)NC(=O)[C@H](CO)NC1=O)C(=O)N[C@@H](CC(C)C)C(=O)N[C@@H](CCC(=O)O)C(=O)N1CCC[C@H]1C(=O)N3)NC(=O)[C@H](CCCCN)NC(=O)CNC(=O)[C@H](CC(N)=O)NC(=O)[C@H](CCSC)NC2=O [N5E] (H-GVIIEVKCKISRQCLEPCKKAGMRFGKCMNGKCHCTPK-OH; disulfide 8-28, 14-33, 18-35) | 0.1 | 0.065 | – | –
